Ends that are not written are not given here.
Test system: peptide-pulsed A24LCL
Assay: IFN-gamma ELISPOT assay on CTLs induced with peptide (HLA-A*2402)
Assay type: cell-based, human
Conditions: CTLs from HLA-A*2402 positive donor, 3 rounds of stimulation, day 21; vs control wells without peptide
Text: Monocyte-derived dendritic cells (DCs) were used as antigen-presenting cells (APCs) to induce cytotoxic T lymphocyte (CTL) responses against peptides presented on human leukocyte antigen (HLA). DCs were generated in vitro as described elsewhere (Nakahara S et al., Cancer Res 2003 Jul. 15, 63(14): 4112-8). Specifically, peripheral blood mononuclear cells (PBMCs) isolated from a normal volunteer (HLA-A*2402 positive) by Ficoll-Plaque (Pharmacia) solution were separated by adherence to a plastic tissue culture dish (Becton Dickinson) so as to enrich them as the monocyte fraction. The monocyte-enriched population was cultured in the presence of 1,000 U/ml of granulocyte-macrophage colony-stimulating factor (GM-CSF) (R&D System) and 1,000 U/ml of interleukin (IL)-4 (R&D System) in AIM-V Medium (Invitrogen) containing 2% heat-inactivated autologous serum (AS). After 7 days of culture, the cytokine-induced DCs were pulsed with 20 micro-g/ml of each of the synthesized peptides in the presence of 3 micro-g/ml of beta 2-microglobulin for 3 hrs at 37 degrees C. in AIM-V Medium. The generated cells appeared to express DC-associated molecules, such as CD80, CD83, CD86 and HLA class II, on their cell surfaces (data not shown). These peptide-pulsed DCs were then inactivated by X-irradiation (20 Gy) and mixed at a 1:20 ratio with autologous CD8+ T cells, obtained by positive selection with CD8 positive Isolation Kit (Dynal). These cultures were set up in 48-well plates (Corning); each well contained 1.5×10^4 peptide-pulsed DCs, 3×10^5 CD8+ T cells and 10 ng/ml of IL-7 (R&D System) in 0.5 ml of AIM-V/2% AS medium. Three days later, these cultures were supplemented with IL-2 (CHIRON) to a final concentration of 20 IU/ml. On days 7 and 14, the T cells were further stimulated with the autologous peptide-pulsed DCs. The DCs were prepared each time by the same way described above. CTL was tested against peptide-pulsed A24LCL cells after the 3rd round of peptide stimulation on day 21 (Tanaka H et al., Br J Cancer 2001 Jan. 5, 84(1): 94-9; Umano Y et al., Br J Cancer 2001 Apr. 20, 84(8): 1052-7; Uchida N et al., Clin Cancer Res 2004 Dec. 15, 10(24): 8577-86; Suda T et al., Cancer Sci 2006 May, 97(5): 411-9; Watanabe T et al., Cancer Sci 2005 August, 96(8): 498-506).
To examine specific CTL activity, interferon (IFN)-gamma enzyme-linked immunospot (ELISPOT) assay and IFN-gamma enzyme-linked immunosorbent assay (ELISA) were performed. Specifically, peptide-pulsed A24LCL (1×10^4/well) was prepared as stimulator cells. Cultured cells in 48 wells were used as responder cells. IFN-gamma ELISPOT assay and IFN-gamma ELISA assay were performed under manufacture procedure.

Substance	Peptide specific CTL activity: IFN-gamma production by ELISPOT
AFREkAKEFL (AFREKAKEFL; not fully specified; printed as AFREkAKEFL) [SEQ ID NO: 45]	potent IFN-gamma production
AFVNqNQIKL (AFVNQNQIKL; not fully specified; printed as AFVNqNQIKL) [SEQ ID NO: 39]	potent IFN-gamma production
IFATsKAQKL (IFATSKAQKL; not fully specified; printed as IFATsKAQKL) [SEQ ID NO: 41]	potent IFN-gamma production
IYSKfHQKRM (IYSKFHQKRM; not fully specified; printed as IYSKfHQKRM) [SEQ ID NO: 43]	potent IFN-gamma production
KQLVkLTRLL (KQLVKLTRLL; not fully specified; printed as KQLVkLTRLL) [SEQ ID NO: 53]	potent IFN-gamma production
LFEEhCETLL (LFEEHCETLL; not fully specified; printed as LFEEhCETLL) [SEQ ID NO: 38]	potent IFN-gamma production
LFRIiDCLLL (LFRIIDCLLL; not fully specified; printed as LFRIiDCLLL) [SEQ ID NO: 47]	potent IFN-gamma production
LYKSsSSYTI (LYKSSSSYTI; not fully specified; printed as LYKSsSSYTI) [SEQ ID NO: 36]	potent IFN-gamma production
NFEEdTLEIF (NFEEDTLEIF; not fully specified; printed as NFEEdTLEIF) [SEQ ID NO: 48]	potent IFN-gamma production
SFWNWLNKL [SEQ ID NO: 18]	potent IFN-gamma production
TFLTDSLEL [SEQ ID NO: 14]	potent IFN-gamma production
YYSKnLNSSF (YYSKNLNSSF; not fully specified; printed as YYSKnLNSSF) [SEQ ID NO: 34]	potent IFN-gamma production

— US20120128705A1, “C6ORF167 PEPTIDES AND VACCINES CONTAINING THE SAME” (OncoTherapy Science, Inc., priority 2009, published 2012)
